Read-outs that look alike come from different tables or passages of the source.
Columns and labels:
[1] = target: hADORA1/CHO (hA1 expressing) cells (Homo sapiens (Human), UniProt P30542); experiment: cell-based; conditions: 10 μM adenosine
hA2a/CHO = hA2a/CHO (Homo sapiens (Human), UniProt P29274); experiment: cAMP inhibition assay in hA2a/CHO cells, 10 μM adenosine; format: cell-based;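 also: compounds added to cells 30 min ahead of adenosine, then a further 30 min at 37 °C with adenosine before cAMP detection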
Protocol: (§1) hA2a/CHO, hA2b/CHO, hA3/CHO and mA2a/CHO (Genscript) were plated at 5×10^3 cells/well into 384-well polystyrene plates at the day of experiment. Compounds were pre-incubated with cells for 30 min at 37° C., 5% CO2. Then 10 μM adenosine was added to the cells and incubated for 30 min at 37° C., 5% CO2. Detection reagent (CISBIO) was added and the plates were incubated for 60 min at room temperature. The signal was captured by Envision.

hA2b/CHO = hA2b/CHO (Homo sapiens (Human), UniProt P29275); experiment: cAMP inhibition assay in hA2b/CHO cells, 10 μM adenosine; format: cell-based;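 also: cells exposed to compound 30 min at 37 °C, then stimulated with adenosine a further 30 min, cAMP read after 60 min at room temperature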
Protocol: as §1

mA2a/CHO = mA2a/CHO (Mus musculus (Mouse), UniProt Q60613); experiment: cAMP inhibition assay in mA2a/CHO cells, 10 μM adenosine; format: cell-based;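 also: compounds preincubated 30 min at 37 °C before the adenosine challenge, then 30 min further stimulation, readout after 60 min detection reagent incubation at room temperature in 384-well plates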
Protocol: as §1

[2] = FLIPR inhibition, read-out: cAMP & FLIPR IC50 (nM) hA1
[3] = read-out: cAMP & FLIPR IC50 (nM) hA2a
[4] = read-out: cAMP & FLIPR IC50 (nM) hA2b
[5] = read-out: cAMP & FLIPR IC50 (nM) mA2a

Chain of hA2a/CHO (P29274 whole entry): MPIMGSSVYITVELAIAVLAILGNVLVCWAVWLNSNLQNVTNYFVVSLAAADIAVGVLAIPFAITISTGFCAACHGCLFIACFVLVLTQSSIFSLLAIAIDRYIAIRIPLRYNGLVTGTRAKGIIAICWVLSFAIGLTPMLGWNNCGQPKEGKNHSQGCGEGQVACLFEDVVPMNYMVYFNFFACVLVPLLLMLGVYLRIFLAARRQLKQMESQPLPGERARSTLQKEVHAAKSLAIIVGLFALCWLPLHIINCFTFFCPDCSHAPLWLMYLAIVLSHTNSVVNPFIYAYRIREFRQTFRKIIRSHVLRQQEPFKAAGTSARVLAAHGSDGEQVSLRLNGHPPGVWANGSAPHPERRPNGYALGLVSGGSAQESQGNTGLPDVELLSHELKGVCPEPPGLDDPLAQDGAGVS
Chain of hADORA1/CHO (hA1 expressing) cells (P30542 whole entry): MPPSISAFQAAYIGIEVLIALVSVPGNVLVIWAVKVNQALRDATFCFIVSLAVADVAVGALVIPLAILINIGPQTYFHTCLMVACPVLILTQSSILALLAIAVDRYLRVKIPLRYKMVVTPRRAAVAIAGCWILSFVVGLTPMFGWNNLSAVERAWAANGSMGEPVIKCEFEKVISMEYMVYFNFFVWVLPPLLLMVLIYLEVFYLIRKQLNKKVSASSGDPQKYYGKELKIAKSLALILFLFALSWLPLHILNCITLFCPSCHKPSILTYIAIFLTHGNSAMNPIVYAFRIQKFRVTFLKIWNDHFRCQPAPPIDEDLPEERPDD
Chain of hA2b/CHO (P29275 whole entry): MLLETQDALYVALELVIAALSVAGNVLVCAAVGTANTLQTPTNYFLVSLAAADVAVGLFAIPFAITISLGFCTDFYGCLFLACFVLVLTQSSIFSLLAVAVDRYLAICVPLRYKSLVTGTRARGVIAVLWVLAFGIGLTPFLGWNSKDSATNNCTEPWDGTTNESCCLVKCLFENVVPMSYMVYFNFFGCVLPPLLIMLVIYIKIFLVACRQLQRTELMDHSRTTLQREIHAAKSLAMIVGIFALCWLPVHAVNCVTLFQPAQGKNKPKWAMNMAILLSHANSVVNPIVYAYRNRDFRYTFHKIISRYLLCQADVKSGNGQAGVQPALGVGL
Chain of mA2a/CHO (Q60613 whole entry): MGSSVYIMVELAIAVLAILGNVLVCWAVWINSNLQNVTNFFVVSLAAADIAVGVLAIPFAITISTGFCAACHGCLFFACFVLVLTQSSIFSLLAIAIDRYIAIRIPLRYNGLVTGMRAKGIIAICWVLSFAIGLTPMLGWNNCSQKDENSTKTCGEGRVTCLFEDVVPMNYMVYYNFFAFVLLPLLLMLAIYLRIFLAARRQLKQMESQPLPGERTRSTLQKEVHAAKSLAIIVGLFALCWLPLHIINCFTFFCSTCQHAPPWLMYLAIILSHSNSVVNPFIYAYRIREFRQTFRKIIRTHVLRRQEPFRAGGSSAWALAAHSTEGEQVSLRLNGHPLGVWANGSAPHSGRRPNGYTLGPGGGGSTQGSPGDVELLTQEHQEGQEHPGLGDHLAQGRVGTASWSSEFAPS

| SMILES | IC50 [1, 2] | IC50 (hA2a/CHO; [3]) | IC50 (hA2b/CHO; [4]) | IC50 (mA2a/CHO; [5]) | IC50 ([1]; cAMP & FLIPR IC50 (nM) hA1, FLIPR inhibition) | IC50 (hA2a/CHO; cAMP & FLIPR IC50 (nM) hA2a) | IC50 (hA2b/CHO; cAMP & FLIPR IC50 (nM) hA2b) | IC50 (mA2a/CHO; cAMP & FLIPR IC50 (nM) mA2a) |
| --- | --- | --- | --- | --- | --- | --- | --- | --- |
| CNc1cccnc1CNC(=O)c1nc(-c2ccc(=O)n(C)c2)c(-c2ncco2)nc1N [Example 46, 3-amino-6-(1-methyl-6-oxo-1,6-dihydropyridin-3-yl)-N-((3-(methylamino)pyridin-2-yl)methyl)-5-(oxazol-2-yl)pyrazine-2-carboxamide] | 488 nM | 102 nM | 1620 nM | 125 nM |  |  |  |  |
| CNc1ccc(F)c(CNC(=O)c2nc(-c3ccc(=O)n(C)c3)c(-c3ncco3)nc2N)n1 [Example 50, 3-amino-N-[[3-fluoro-6-(methylamino)pyridin-2-yl]methyl]-6-(1-methyl-6-oxo-1,6-dihydropyridin-3-yl)-5-(1,3-oxazol-2-yl)pyrazine-2-carboxamide] | 90 nM | 33 nM | 249 nM | 85 nM |  |  |  |  |
| COc1cc(F)ccc1CNC(=O)c1nc(-c2cc(C)nc(C)c2)c(-c2ccc(F)cc2)nc1N [Example 52, 3-amino-6-(2,6-dimethylpyridin-4-yl)-N-(4-fluoro-2-methoxybenzyl)-5-(4-fluorophenyl)pyrazine-2-carboxamide] | 2630 nM | 89 nM | ≥ 10000 nM | 5960 nM |  |  |  |  |
| COc1c(F)cccc1CNC(=O)c1nc(-c2cc(C)nc(C)c2)c(-c2ccc(F)cc2)nc1N [Example 54, 3-amino-6-(2,6-dimethylpyridin-4-yl)-N-(3-fluoro-2-methoxybenzyl)-5-(4-fluorophenyl)pyrazine-2-carboxamide] | 1590 nM | 117 nM | ≥ 10000 nM | 2080 nM |  |  |  |  |
| Cc1cc(-c2nc(C(=O)NCc3ccccc3C(F)F)c(N)nc2-c2ccc(F)cc2)cc(C)n1 [Example 55, 3-amino-N-(2-(difluoromethyl)benzyl)-6-(2,6-dimethylpyridin-4-yl)-5-(4-fluorophenyl)pyrazine-2-carboxamide] | 413 nM | 133 nM | 4440 nM | 1590 nM |  |  |  |  |
| COc1ccccc1CNC(=O)c1nc(-c2cc(C)nc(C)c2)c(-n2cccn2)nc1N [Example 56, 3-amino-6-(2,6-dimethylpyridin-4-yl)-N-(2-methoxybenzyl)-5-(1H-pyrazol-1-yl)pyrazine-2-carboxamide] | 940 nM | 28 nM | ≥ 10000 nM | 623 nM |  |  |  |  |
| Cc1cc(-c2nc(C(=O)NCc3ncccc3OC(F)F)c(N)nc2-c2ccc(F)cc2)cc(C)n1 [Example 57, 3-amino-N-((3-(difluoromethoxy)pyridin-2-yl)methyl)-6-(2,6-dimethylpyridin-4-yl)-5-(4-fluorophenyl)pyrazine-2-carboxamide] |  |  |  |  | 142 nM | 41 nM | 1680 nM | 278 nM |
| Cn1cc(-c2nc(C(=O)NCc3ncccc3OC(F)F)c(N)nc2-c2ccc(F)cc2)ccc1=O [Example 58, 3-amino-N-((3-(difluoromethoxy)pyridin-2-yl)methyl)-5-(4-fluorophenyl)-6-(1-methyl-6-oxo-1,6-dihydropyridin-3-yl)pyrazine-2-carboxamide] | 18 nM | 19 nM | 62 nM | 81 nM |  |  |  |  |
| COc1cccnc1CNC(=O)c1nc(-c2cc(C)nc(C)c2)c(-c2ccc(F)cc2)nc1N [Example 71, 3-amino-6-(2,6-dimethylpyridin-4-yl)-5-(4-fluorophenyl)-N-((3-methoxypyridin-2-yl)methyl)pyrazine-2-carboxamide] | 388 nM | 64 nM | 1940 nM | 1250 nM |  |  |  |  |
| Cn1cc(-c2nc(C(=O)NCc3ccccc3OC(F)F)c(N)nc2-c2ccc(F)cc2)ccc1=O [Example 72, 3-amino-N-(2-(difluoromethoxy)benzyl)-5-(4-fluorophenyl)-6-(1-methyl-6-oxo-1,6-dihydropyridin-3-yl)pyrazine-2-carboxamide] | 14 nM | 1.3 nM | 23 nM | 8.1 nM |  |  |  |  |
| Cn1cc(-c2nc(C(=O)NCc3c(F)cccc3OC(F)F)c(N)nc2-c2ccc(F)cc2)ccc1=O [Example 73, 3-amino-N-(2-(difluoromethoxy)-6-fluorobenzyl)-5-(4-fluorophenyl)-6-(1-methyl-6-oxo-1,6-dihydropyridin-3-yl) pyrazine-2-carboxamide] | 20 nM | 0.4 nM | 8.1 nM | 4.2 nM |  |  |  |  |
| COc1ccccc1CNC(=O)c1nc(-c2cc(C)nc(C)c2)c(-n2nccc2C)nc1N [Example 74, 3-amino-6-(2,6-dimethylpyridin-4-yl)-N-(2-methoxybenzyl)-5-(5-methyl-1H-pyrazol-1-yl)pyrazine-2-carboxamide] | 216 nM | 44 nM | ≥ 10000 nM | 1950 nM |  |  |  |  |
| COc1ccccc1CNC(=O)c1nc(-c2cc(C)nc(C)c2)c(-n2ccc(C)n2)nc1N [Example 75, 3-amino-6-(2,6-dimethylpyridin-4-yl)-N-(2-methoxybenzyl)-5-(3-methyl-1H-pyrazol-1-yl)pyrazine-2-carboxamide] | 44 nM | 6.1 nM | ≥ 10000 nM | 157 nM |  |  |  |  |
| COc1ccccc1CNC(=O)c1nc(-c2ccc(=O)n(C(F)F)c2)c(-c2ccc(F)cc2)nc1N [Example 76, 3-amino-6-(1-(difluoromethyl)-6-oxo-1,6-dihydropyridin-3-yl)-5-(4-fluorophenyl)-N-(2-methoxybenzyl) pyrazine-2-carboxamide] | 68 nM | 4.2 nM | 76 nM | 22 nM |  |  |  |  |
| Cc1cc(-c2nc(C(=O)NCc3ccccc3F)c(N)nc2-c2ccc(F)cc2)cc(C)n1 [Example 78, 3-amino-6-(2,6-dimethylpyridin-4-yl)-N-(2-fluorobenzyl)-5-(4-fluorophenyl)pyrazine-2-carboxamide] | 2730 nM | 44 nM | ≥ 10000 nM | 934 nM |  |  |  |  |
| Cc1cc(-c2nc(C(=O)NCc3ccccc3Cl)c(N)nc2-c2ccc(F)cc2)cc(C)n1 [Example 79, 3-amino-N-(2-chlorobenzyl)-6-(2,6-dimethylpyridin-4-yl)-5-(4-fluorophenyl) pyrazine-2-carboxamide] | 597 nM | 33 nM | ≥ 10000 nM | 540 nM |  |  |  |  |
| Cc1cc(-c2nc(C(=O)NCc3ccccc3Br)c(N)nc2-c2ccc(F)cc2)cc(C)n1 [Example 80, 3-amino-N-(2-bromobenzyl)-6-(2,6-dimethylpyridin-4-yl)-5-(4-fluorophenyl) pyrazine-2-carboxamide] | 1400 nM | 44 nM | 4170 nM | 158 nM |  |  |  |  |
| Cc1cc(-c2nc(C(=O)NCc3ccccc3C)c(N)nc2-c2ccc(F)cc2)cc(C)n1 [Example 81, 3-amino-6-(2,6-dimethylpyridin-4-yl)-5-(4-fIuorophenyl)-N-(2-methylbenzyl) pyrazine-2-carboxamide] | 4750 nM | 98 nM | ≥ 10000 nM | 301 nM |  |  |  |  |
| COc1ccccc1CNC(=O)c1nc(-c2cc(C)nc(N)c2)c(-c2ccc(F)cc2)nc1N [Example 83, 3-amino-6-(2-amino-6-methylpyridin-4-yl)-5-(4-fluorophenyl)-N-(2-methoxybenzyl)pyrazine-2-carboxamide] | 132 nM | 2 nM | 547 nM | 116 nM |  |  |  |  |
| CCc1ccccc1CNC(=O)c1nc(-c2cc(C)nc(C)c2)c(-c2ccc(F)cc2)nc1N [Example 84, 3-amino-6-(2,6-dimethylpyridin-4-yl)-N-(2-ethylbenzyl)-5-(4-fluorophenyl) pyrazine-2-carboxamide] | 1200 nM | 18 nM | ≥ 10000 nM | 238 nM |  |  |  |  |
| Cc1cc(-c2nc(C(=O)NCc3c(F)cccc3OC(F)F)c(N)nc2-c2ccc(F)cc2)cc(C)n1 [Example 85, 3-amino-N-(2-(difluoromethoxy)-6-fluorobenzyl)-6-(2,6-dimethylpyridin-4-yl)-5-(4-fluorophenyl)pyrazine-2-carboxamide] | 299 nM | 2.5 nM | 418 nM | 36 nM |  |  |  |  |
| COc1ccccc1C(=O)NCc1nc(-c2cc(C)nc(C)c2)c(-c2ccc(F)cc2)nc1N [Example 86, N-((3-amino-6-(2,6-dimethylpyridin-4-yl)-5-(4-fluorophenyl)pyrazin-2-yl)methyl)-2-methoxybenzamide] | 539 nM | 5 nM | 7830 nM | 192 nM |  |  |  |  |
| Nc1nc(-c2ccc(F)cc2)c(-c2ccc(=O)n(C3CC3)c2)nc1C(=O)NCc1c(F)cccc1F [Example 87, 3-amino-6-(1-cyclopropyl-6-oxo-1,6-dihydropyridin-3-yl)-N-(2,6-difluorobenzyl)-5-(4-fluorophenyl)pyrazine-2-carboxamide] | 31 nM | 10 nM | 153 nM | 22 nM |  |  |  |  |
| Cc1scnc1CNC(=O)c1nc(-c2ccc3nccn3c2)c(-c2ncco2)nc1N [Example 94, 3-amino-6-[imidazo[1,2-a]pyridin-6-yl]-N-[(5-methyl-1,3-thiazol-4-yl)methyl]-5-(1,3-oxazol-2-yl)pyrazine-2-carboxamide] | 2960 nM | 3.9 nM | 76 nM | 34 nM |  |  |  |  |
| Nc1ccnc(CNC(=O)c2nc(-c3ccc4nccn4c3)c(-c3ncco3)nc2N)n1 [Example 95, 3-amino-N-[(4-aminopyrimidin-2-yl)methyl]-6-[imidazo[1,2-a]pyridin-6-yl]-5-(1,3-oxazol-2-yl)pyrazine-2-carboxamide] | 10000 nM | 69 nM | 78 nM | 667 nM |  |  |  |  |

Reference: patent US10898481B2 (priority 2018, dated 2021)
